Tested on: 168753-222-R-J1-PDC complex spheroid viability
Test: Anticancer human tumor 168753-222-R-J1-PDC patient-derived bladder carcinoma cell line growth inhibition [CLK]
Conditions: for IC50: curve of first compound; for viability, T/C: stronger effect = lower value
Source text: A high-throughput screen of multi-cell type tumor spheroids was designed to identify active combinations of […] and targeted small molecules. Complex spheroids include a stromal component modeled by human endothelial cells (HUVEC) and fibroblasts modeled by human mesenchymal stem cells (MSCs). The concentration ranges selected for each drug and investigational agent were based upon clinically achievable concentrations if the clinical Cmax of the agent was known.
Compounds. The drugs and investigational agents: cirtuvivint (SM08502; NSC835563), CC-671 (NSC850746), vemurafenib (NSC761431), tapotoclax (NSC804041), sotorasib (NSC818433), adagrasib (NSC831453), MRTX-1133 (NSC836407), BAY2416964 (NSC825713), copanlisib (NSC816437), inavolisib (NSC800729), abemaciclib (NSC768073), osimertinib (NSC779217), entinostat (NSC756642), eltanexor (KPT-8602, NSC794443), venetoclax (NSC766270), ceralasertib (NSC777638), bortezomib (NSC756655), olaparib (NSC753686), talazoparib (NSC767125), alisertib (NSC759677), peposertib (NSC802822), gemcitabine (NSC613327), 5-fluorouracil (NSC19893), SN-38 (NSC673596), oxaliplatin (NSC266046), paclitaxel (NSC125973), and doxorubicin (NSC123127), were obtained from the National Cancer Institute (NCI) Developmental Therapeutics Program Chemical Repository. The FDA-approved anticancer drug set is available from the Developmental Therapeutics Program at https://dtp.cancer.gov/organization/dscb/obtaining/available plates.htm. […] The stock solutions were prepared in dimethyl sulfoxide (DMSO, Sigma-Aldrich, St. Louis, MO, cat. D2650), except for the platinum complexes which were prepared in saline (Quality Biological, Gaithersburg, MD, cat. 114-055-101), at 800-fold the tested concentration and stored at -70 degrees C prior to their use. All drugs and investigational agents were tested over a range starting from a high concentration at or near the clinical Cmax and decreasing in half-log increments. If the clinical Cmax for an agent had not been determined, the highest concentration tested was 10 microM.
Cell Culture. All cells were maintained in an incubator at 37 degrees C and 5% CO2 with 95% humidity. The PDC lines were cultured according to standard operating procedures established by the NCI PDMR. Briefly, all PDCs were thawed and cultured in Matrigel-coated flasks prepared with a working solution of 1X Ham's F-12 nutrient mix, without supplementation (Invitrogen, Waltham, MA, cat. 11765054), 100 U/mL penicillin-streptomycin (Invitrogen, cat. 15140122), and 2.5% Matrigel (Corning Inc., Corning, NY, cat. 354248) for the first three passages. The 947758-054-R-J2-PDC line was cultured in 6B/Colon 1A media, which includes advanced DMEM/F-12 (Thermo Fisher Scientific, cat. 12634028), 10 mM HEPES (Thermo Fisher Scientific, cat. 15630080), 1X GlutaMAX supplement (Thermo Fisher Scientific, cat. 35050061), 0.1 mg/mL primocin (InvivoGen, cat. ant-pm-2), 10% defined fetal bovine serum, heat inactivated (HyClone Laboratories Inc., cat. SH30070.03HI), 1.25 mM N-Acetyl-L-cysteine (Sigma-Aldrich, cat. A9165), 10 mM nicotinamide (Sigma-Aldrich, cat. N0636), 1X B-27 supplement (Thermo Fisher Scientific, cat. 17504044), 1X N-2 supplement (Thermo Fisher Scientific, cat. 17502048), and 10 microM Y-27632 dihydrochloride (Tocris Bioscience, cat. 1254). The 876862-298-R-J1-PDC was cultured in 6E media, which includes all 6B/Colon 1A media components plus 50% L-WRN conditioned media (ATCC, cat. CRL-3276), 50 ng/mL recombinant human EGF recombinant protein (hEGF; Thermo Fisher Scientific, cat. PHG0311), 10 ng/mL recombinant human fibroblast growth factor 10 (hGFG-10; PeproTech, cat. 100-26), 1 ng/mL recombinant human fibroblast growth factor 2 (hFGF-2; PeproTech, cat. 100-18B), and 1 µM prostaglandin E2 (PGE2; Tocris, cat. 2296). The 227483-062-R1-J1-PDC line was cultured in Panc media, containing all 6E components except hFGF-2, with the addition of 500 nM SB-431542 (Selleckchem, cat. S1067) and 10 nM gastrin (Tocris, cat. 3006). […]

[1] = second compound 0.0316 µM, first compound 0.0316 µM
[2] = second compound 0.0316 µM, first compound 0.1 µM
[3] = second compound 0.0316 µM, first compound 0.316 µM
[4] = second compound 0.0316 µM, first compound 1 µM
[5] = second compound 0.1 µM, first compound 0.0316 µM
[6] = second compound 0.1 µM, first compound 0.1 µM
[7] = second compound 0.1 µM, first compound 0.316 µM
[8] = second compound 0.1 µM, first compound 1 µM
[9] = second compound 0.316 µM, first compound 0.0316 µM
[10] = second compound 0.316 µM, first compound 0.1 µM
[11] = second compound 0.316 µM, first compound 0.316 µM
[12] = second compound 0.316 µM, first compound 1 µM
[13] = second compound 1 µM, first compound 0.0316 µM
[14] = second compound 1 µM, first compound 0.1 µM
[15] = second compound 1 µM, first compound 0.316 µM
[16] = second compound 1 µM, first compound 1 µM
[17] = second compound 3.16 µM, first compound 0.0316 µM
[18] = second compound 3.16 µM, first compound 0.1 µM
[19] = second compound 3.16 µM, first compound 0.316 µM
[20] = second compound 3.16 µM, first compound 1 µM
[21] = second compound 10 µM, first compound 0.0316 µM
[22] = second compound 10 µM, first compound 0.1 µM
[23] = second compound 10 µM, first compound 0.316 µM
[24] = second compound 10 µM, first compound 1 µM
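Note: viability measured after seven days of drug exposure.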
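Throughout, for viability, T/C: luminescence signal used as surrogate for viable cell amount; 100% = DMSO vehicle control wells.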

COc1c(OCCCN2CCOCC2)ccc2c3n(c(=NC(=O)c4cnc(N)nc4)nc12)CCN3 + CN1CCN(c2cc(C(=O)Nc3cc4cc(-c5cnn(C)c5)ccc4cn3)ccn2)CC1
IC50 (second compound 0.0316 µM): < 0.00316 µM
IC50 (second compound 0.1 µM): < 0.00316 µM
IC50 (second compound 0.316 µM): < 0.00316 µM
IC50 (second compound 1 µM): < 0.00316 µM
IC50 (second compound 3.16 µM): < 0.00316 µM
IC50 (second compound 10 µM): < 0.00316 µM
viability, T/C (second compound 0.0316 µM, first compound 0.00316 µM): 49%
viability, T/C (second compound 0.0316 µM, first compound 0.01 µM): 28.7%
viability, T/C [1]: 11.2%
viability, T/C [2]: 7.62%
viability, T/C [3]: 4.48%
viability, T/C [4]: 3.95%
viability, T/C (second compound 0.1 µM, first compound 0.00316 µM): 31.4%
viability, T/C (second compound 0.1 µM, first compound 0.01 µM): 21.4%
viability, T/C [5]: 7.93%
viability, T/C [6]: 4.89%
viability, T/C [7]: 1.94%
viability, T/C [8]: 0.48%
viability, T/C (second compound 0.316 µM, first compound 0.00316 µM): 13.2%
viability, T/C (second compound 0.316 µM, first compound 0.01 µM): 10.1%
viability, T/C [9]: 2.34%
viability, T/C [10]: 0.36%
viability, T/C [11]: 0.18%
viability, T/C [12]: 1.84%
viability, T/C (second compound 1 µM, first compound 0.00316 µM): 0.61%
viability, T/C (second compound 1 µM, first compound 0.01 µM): 0.25%
viability, T/C [13]: 0.08%
viability, T/C [14]: 0.05%
viability, T/C [15]: 0.06%
viability, T/C [16]: 0.09%
viability, T/C (second compound 3.16 µM, first compound 0.00316 µM): 1.35%
viability, T/C (second compound 3.16 µM, first compound 0.01 µM): 0.2%
viability, T/C [17]: 0.08%
viability, T/C [18]: 0.05%
viability, T/C [19]: 0.09%
viability, T/C [20]: 0.12%
viability, T/C (second compound 10 µM, first compound 0.00316 µM): 0.06%
viability, T/C (second compound 10 µM, first compound 0.01 µM): 0.11%
viability, T/C [21]: 0.17%
viability, T/C [22]: 0.73%
viability, T/C [23]: 0.21%
viability, T/C [24]: 0.22%

COC1C=CCC(C)C(C)S(=O)(=O)NC(=O)c2ccc3c(c2)N(CC2CCC21)CC1(CCCc2cc(Cl)ccc21)CO3 (centres undefined) + CNC(=O)c1ccc(Nc2nc(OC3CCCC3)c3c(-c4ccc5nc(C)oc5c4)c[nH]c3n2)c(OC)c1
IC50 (second compound 0.0316 µM): 2.27 µM
IC50 (second compound 0.1 µM): 2.16 µM
IC50 (second compound 0.316 µM): 0.203 µM
IC50 (second compound 1 µM): < 0.0316 µM
IC50 (second compound 3.16 µM): < 0.0316 µM
IC50 (second compound 10 µM): < 0.0316 µM
viability, T/C [1]: 105%
viability, T/C [2]: 118%
viability, T/C [3]: 101%
viability, T/C [4]: 87.6%
viability, T/C (second compound 0.0316 µM, first compound 3.16 µM): 34.6%
viability, T/C (second compound 0.0316 µM, first compound 10 µM): 13.6%
viability, T/C [5]: 102%
viability, T/C [6]: 106%
viability, T/C [7]: 101%
viability, T/C [8]: 78.5%
viability, T/C (second compound 0.1 µM, first compound 3.16 µM): 35.9%
viability, T/C (second compound 0.1 µM, first compound 10 µM): 18.9%
viability, T/C [9]: 75.9%
viability, T/C [10]: 74%
viability, T/C [11]: 35%
viability, T/C [12]: 29.7%
viability, T/C (second compound 0.316 µM, first compound 3.16 µM): 30%
viability, T/C (second compound 0.316 µM, first compound 10 µM): 11.9%
viability, T/C [13]: 33%
viability, T/C [14]: 22.6%
viability, T/C [15]: 15.8%
viability, T/C [16]: 13.6%
viability, T/C (second compound 1 µM, first compound 3.16 µM): 14.9%
viability, T/C (second compound 1 µM, first compound 10 µM): 9.33%
viability, T/C [17]: 20.9%
viability, T/C [18]: 15.9%
viability, T/C [19]: 16.9%
viability, T/C [20]: 11.5%
viability, T/C (second compound 3.16 µM, first compound 3.16 µM): 15.3%
viability, T/C (second compound 3.16 µM, first compound 10 µM): 7.77%
viability, T/C [21]: 18%
viability, T/C [22]: 15.3%
viability, T/C [23]: 16.7%
viability, T/C [24]: 10.5%
viability, T/C (second compound 10 µM, first compound 3.16 µM): 11.3%
viability, T/C (second compound 10 µM, first compound 10 µM): 11.4%

Source: PubChem BioAssay AID2060626 (Molecular Pharmacology Branch, DTP, NCI, 2025)
